Test results from patent US20080193976A1 (priority 2005, published 2008).

Tested on: CD4+T-cells
Format: cell-based, human

Substance	positive control response	epitope classification	responders
tetanus toxoid [reference compound]	robust positive control responses		
RLVALYLAARLSWNQ [Peptide 15]		minor epitopes	14.29%
SQDLDAIWRGFYIAG [Peptide 65]		minor epitopes	14.29%
ARGRIRNGALLRVYVPRS [Peptide 75-76]		major (or significant) epitope	22.62%
